# How the values were obtained:
# [1] = tested on: 4T1 murine breast cancer cells; assay: Example S: in vitro anticancer screen, 4T1 cells, Wst1; assay type: cell-based, mouse; settings: Mus musculus, 4T1, 18 h, 18 hr, Wst1; for viability at 1 µM: read-out: 4T1 1 μM, percent of cancer cell survival relative to vehicle treated cells; for viability at 5 µM: read-out: 4T1 5 μM, percent of cancer cell survival relative to vehicle treated cells
# Description: Anticancer activity against 4T1 murine breast cancer cells cancer cells was assessed in vitro by seeding 1×10^4 cells/well in flat bottom culture plates, then treating with selected 1 μM or 5 μM concentrations of compounds for 18 hr after plating. Then 10 μL of Wst1 dye reagent, a tetrazolium dye indicator for […], was added/well and incubated approximately 2 hr before being assayed on the Biotek EL800 Universal microplate reader (450 nm, reference 630 nm).
# Numerical values in the Table 37 represent percent of cancer cell survival relative to vehicle treated cells at the indicated concentrations, with values under 100 indicating anticancer cytotoxic activity at the drugs concentrations tested.
# THP-1 cells = assay: Example D: LPS-triggered THP-1 cell death assay, acute/5-hour and chronic/48-hour; assay type: cell-based, Human; settings: 10 ng/ml LPS, 0.1 μM test compound, 48 hours
# Description: Compounds of the invention were tested at 0.1 μM versus AC in the LPS-triggered THP-1 cell death assay. Both acute/5-hour and chronic/48-hour phases of cell death were assessed. Compounds were screened in batches with DMSO as the negative control and AC as the high activity control.
# [2] = tested on: PC-3 prostate cancer cells; assay: Example T: sensitisation of PC-3 cells to doxorubicin, oxaliplatin, paclitaxel or vincristine, Wst1; assay type: cell-based, human; settings: PC-3 cells, 72 hours
Compound,viability at 1 µM [1],viability at 5 µM [1],"Viable cell percent change, Chronic/48-hour, Mean (THP-1 cells)",further results
"COCCNc1ccnc2ccccc12 [BR, N-(2-Methoxyethyl)quinolin-4-amine]",106%,122%,,
"c1ccc2c(NCCN3CCOCC3)ccnc2c1 [BS, N-[2-(Morpholin-4-yl)ethyl]quinolin-4-amine]",105%,117%,,
"O=C(NCCCNc1ccnc2ccccc12)c1ccccc1 [BT, N-[3-(Quinolin-4-ylamino)propyl]benzamide]",119%,121%,66.98%,
"CCN(CC)CCNC(=O)c1ccc(Nc2ccnc3ccccc23)cc1 [BW, N-(2-Diethylaminoethyl)-4-(quinolin-4-ylamino)benzamide]",123%,236%,36.08%,
"CN(C)c1ccc(CNc2ccnc3ccccc23)cc1 [BX, N-(4-Dimethylaminobenzyl)quinolin-4-amine]",116%,116%,25.10%,
"c1ccc2c(NCc3ccncc3)ccnc2c1 [BZ, N-(Pyridin-4-ylmethyl)quinolin-4-amine]",122%,260%,30.72%,
"CCCCCCOCCCCCCCC(=O)NCc1ccncc1 [CA, N-(Pyridin-4-ylmethyl)-8-(hexyloxy)octanamide]",108%,109%,,
"CCCCCCOCCCCCCCC(=O)Nc1ccc2ncccc2c1 [CB, N-(Quinolin-6-yl)-8-(hexyloxy)octanamide]",105%,102%,10.62%,
"CCCCCCOCCCCCCCCn1cnc2ccccc21 [CC, 1-[8-(Hexyloxy)octyl]-1H-benzimidazole]",110%,99.5%,,
"CCCCCCCCCCOc1cccc(CNc2ncnc3ccccc23)c1 [CG, N-[3-(Decyloxy)benzyl]quinazolin-4-amine]",,,54.66%,
"CCCCCCOCCCCCCCCNc1ccnc2c(C(F)(F)F)cccc12 [CN, N-[8-(Hexyloxy)octyl]-8-(trifluoromethyl)quinolin-4-amine]",32.5%,18.8%,3.70%,
"c1ccc(-c2ccc(Nc3ccnc4ccccc34)cc2)cc1 [DC, N-(Biphenyl-4-yl)quinolin-4-amine]",110%,96.7%,87.66%,
"CCCCCC(=O)Nc1ccc(Nc2ccnc3ccccc23)cc1 [DG, N-[4-(Quinolin-4-ylamino)phenyl]hexanamide]",105%,94.7%,37.90%,
"CCCCCC(=O)Nc1cccc(Nc2ccnc3ccccc23)c1 [DH, N-[3-(Quinolin-4-ylamino)phenyl]hexanamide]",96.6%,112%,50.89%,
"COc1ccc(Nc2ccnc3ccccc23)cc1 [DI, N-(4-Methoxyphenyl)quinolin-4-amine]",108%,126%,82.24%,
"CCCCOc1ccc(Nc2ccnc3ccccc23)cc1 [DK, N-(4-Butoxyphenyl)quinolin-4-amine]",102%,87.6%,73.60%,
"c1ccc(CNc2ccnc3ccccc23)cc1 [DQ, N-Benzylquinolin-4-amine]",99.5%,122%,32.31%,
"CCCCCCCCCCOc1ccc(CNc2ccnc3ccccc23)cc1 [DT, N-[4-(Decyloxy)benzyl]quinolin-4-amine]",,,16.12%,

Compound,viability at 1 µM [1],viability at 5 µM [1],"Viable cell percent change, Chronic/48-hour, Mean (THP-1 cells)",further results
"c1ccc(CCOc2cccc(CNc3ccnc4ccccc34)c2)cc1 [DV, N-(3-Phenethoxybenzyl)quinolin-4-amine]",,,24.69%,"viability at 0.4 µM ([2]; Homo sapiens, compound 0.4 μM alone, Wst1, vehicle = 100, read-out: No Chemo: percent cell survival): 31.6%; Doxorubicin 3.5 μM: percent cell survival ([2]; compound 0.4 μM + doxorubicin 3.5 μM, chemotherapy agent alone normalized to 100%): 76.7%; Oxaliplatin 100 μM: percent cell survival ([2]; compound 0.4 μM + oxaliplatin 100 μM, chemotherapy agent alone normalized to 100%): 61.9%; Paclitaxel 50 μM: percent cell survival ([2]; compound 0.4 μM + paclitaxel 50 μM, chemotherapy agent alone normalized to 100%): 23.3%; Vincristine 100 nM: percent cell survival ([2]; compound 0.4 μM + vincristine 100 nM, chemotherapy agent alone normalized to 100%): 32.2%"
"O=C(NCCCCNc1ccnc2ccccc12)c1ccccc1 [DW, N-[4-(Quinolin-4-ylamino)butyl]benzamide]",102%,194%,73.97%,
"O=C(NCCCCCCNc1ccnc2ccccc12)c1ccccc1 [DX, N-[6-(Quinolin-4-ylamino)hexyl]benzamide]",112%,105%,59.95%,
"CCCCCCOc1ccccc1C(=O)NCCCCNc1ccnc2ccccc12 [ED, 2-(Hexyloxy)-N-[4-(quinolin-4-ylamino)butyl]benzamide]",,,81.40%,
"c1ccc(CNc2ccnc3ccccc23)nc1 [EH, N-(Pyridin-2-ylmethyl)quinolin-4-amine]",116%,128%,32.85%,
"CCCCCCOCCCCCCCCNc1ccc2ncccc2c1 [EK, N-[8-(Hexyloxy)octyl]quinolin-6-amine]",116%,114%,15.50%,
"CCCCCCOCCCCCCCCNc1cccc2cccnc12 [EM, N-[8-(Hexyloxy)octyl]quinolin-8-amine]",106%,93%,,
"CCCCCCOCCCCCCCCNc1cc(C(F)(F)F)nc2ccccc12 [EN, N-[8-(Hexyloxy)octyl]-2-(trifluoromethyl)quinolin-4-amine]",93.3%,89.8%,6.64%,
"CCCCC(OC(C)=O)c1nc2c(N)nc3ccccc3c2n1CC(C)C (stereo not shown) [FC, 1-(4-Amino-1-isobutyl-1H-imidazo[4,5-c]quinolin-2-yl)pentyl acetate]",115%,123%,,
"CCCCCCCCCCCCCCCCn1cnc2cnccc21 [FM, 1-Hexadecyl-1H-imidazo[4,5-c]pyridine]",,,9.74%,
"COCCCCCCCCNc1ccncc1 [FN, N-(8-Methoxyoctyl)pyridin-4-amine]",92.9%,79.4%,3.54%,
"CCCCCCOCCCCCCCCNc1cccnc1 [FO, N-[8-(Hexyloxy)octyl]pyridin-3-amine]",106%,146%,20.18%,
"CCCCCCOCCCCCCCCNc1ccccn1 [FP, N-[8-(Hexyloxy)octyl]pyridin-2-amine]",116%,116%,30.44%,
CCCCCCOCCCCCCCCNc1ncccn1 [FQ],110%,98%,25.62%,
"CCCCCCOCCCCCCCCNc1nccc2ccccc12 [FS, N-[8-(Hexyloxy)octyl]isoquinolin-1-amine]",122%,107%,,
"CCCCCCOCCCCCCCCNc1cnc2ccccc2n1 [FU, N-[8-(Hexyloxy)octyl]quinoxalin-2-amine]",118%,106%,,
"CCCCCCOCCCCCCCCNc1cnccn1 [FV, N-[8-(Hexyloxy)octyl]pyrazin-2-amine]",104%,101%,17.51%,
"CCCCCCOCCCCCCCCn1cnc2cccnc21 [FX, 3-[8-(Hexyloxy)octyl]-3H-imidazo[4,5-b]pyridine]",112%,96.6%,,

# — patent publication US20250034139A1, “AMINE COMPOUNDS HAVING ANTI-INFLAMMATORY, ANTIFUNGAL, ANTIPARASITIC, AND ANTICANCER ACTIVITY” (PHARMA CINQ, LLC, priority 2013, published 2025)
